Legend:
[1] = system: Advillin^Cre and Mecp^2f/y mice and control littermates; experiment: Magnitude of startle response to a 125 dB noise; format: in vivo; conditions: i.p., 2 mg/kg vs saline, all mice
Experimental: FIG. 3 is a graph showing magnitude of startle response to a 125 dB noise in mice following i.p. administration of either saline or 2 mg/kg midazolam treatment. Responses are expressed as percent of startle response to a 125 dB noise. Two-way ANOVA with post-hoc Sidak's test, *, p<0.05.

[2] = system: Advillin^Cre and Mecp^2f/y mice and control littermates; experiment: Tactile prepulse inhibition (PPI): startle response to a 125 dB noise preceded by a light air puff; format: in vivo; conditions: i.p., 2 mg/kg vs saline, both Mecp2 mutants and controls
Experimental: FIG. 1 is a graph showing percent inhibition of the startle response to a 125 dB noise, when the startle noise is preceded by a light air puff in mice following i.p. administration of either saline or 2 mg/kg midazolam treatment. Two-way ANOVA with post-hoc Sidak's test, *, p<0.05.

Cc1ncc2n1-c1ccc(Cl)cc1C(c1ccccc1F)=NC2 [midazolam]
sedation ([1]; evidenced by startle amplitude): caused significant sedation
reduction in startle amplitude ([1]; startle to 125 dB noise): ~50%
tactile sensitivity (percent inhibition of the startle response to a 125 dB noise when preceded by a light air puff, tactile PPI) [2]: significantly attenuated tactile sensitivity

From patent publication US12077512B2, “Compositions and methods for reducing tactile dysfunction, anxiety, and social impairment” (President and Fellows of Harvard College, priority 2019, dated 2024)
